# Laboratory results as given in patent US20220409617A1, “Drug Formulations and Methods of Treatment for Metabolic Disorders” (The Regents of the University of California, priority 2019, published 2022).
# Assays:
# [1] = Voluntary cage running in HFD-fed mice; format: in vivo, mouse
# Source text: Exercise can mitigate the negative effects of hyper-nutrition. When provided with a running wheel, mice will voluntarily run 2-10 km per night, slowing the body weight and fat gain that normally accompany HFD feeding and improving metabolic status. To benchmark the effects of sphingolipid-like compound 893 against voluntary exercise and to determine whether the beneficial effects of these interventions are additive, 16 male, C57BL/6J mice that had been fed a HFD for 7 weeks were individually housed, provided with running wheels, and randomly assigned to receive vehicle or 120 mg/kg sphingolipid-like compound 893 on the Monday/Wednesday/Friday schedule. Rodent running activity declines under stress, and monitoring the duration and distance of voluntary wheel running also provides a holistic measure of overall mouse health. […] As expected, voluntary exercise led to weight loss in vehicle-treated mice maintained on a HFD that leveled off after the first week of intervention (FIGS. 15, 21, & 22). […] Wheel running reduced fat mass while maintaining lean mass in all groups (FIGS. 15, 22 & 23).
# To monitor voluntary exercise, sixteen mice were singly housed in home cages equipped with running wheels; initially n=8. A magnet was affixed to each 240 mm wheel and a bicycle odometer (Sigma BC509, Sigma Sports, Chicago) used to count the number of wheel revolutions and time spent on running on the wheels. Distance run was calculated by the equation (#revolutions×running wheel circumference=distance). The wheels were cleaned and randomly re-assigned weekly to each cage to control for differences in wheel performance. Two animals in the sphingolipid-like compound 893-treated group were euthanized due to gavage errors and were excluded from the analysis resulting in n=6.
# brain mitochondria = assay: Brain (hypothalamus) mitochondrial morphology, citrate synthase staining; format: in vivo, mouse; conditions: single oral dose 120 mg/kg, HFD-fed mice
# Description: Preventing mitochondrial fission in the liver improves insulin sensitivity in mice with diet-induced obesity, while blocking fission in anorexigenic hypothalamic POMC neurons reduces food intake by restoring leptin sensitivity (A. Santoro, et al., 2017; and M. Schneeberger, et al., 2013, cited supra). To determine whether sphingolipid-like compound 893 was also effective in the hypothalamus, mitochondrial morphology was assessed in the brains of the same mice evaluated in FIG. 13. Due to the increased time required to remove the organ, brain mitochondria were visualized in fixed tissues by immunofluorescence microscopy rather than by NADH/NADPH autofluorescence. […] Sphingolipid-like compound 893 reversed these HFD-induced changes in mitochondrial morphology in the brains of 3 out of 4 animals examined (FIG. 14). […]
# MEFs were washed twice with PBS and fixed with 4% paraformaldehyde for 10 min at RT. […] NADH/NADPH autofluorescence was detected with 740 nm excitation and 450±50 nm detectors using a Mai Tai two-photon laser. Fluorescence microscopy was performed on a Zeiss LSM 780 confocal using a 63× oil objective with a […] numerical aperture (NA) or using a Nikon TE2000-S inverted epifluorescence microscope with a 100× oil objective (1.3 NA) and a Photometrics CoolSNAP ES2 monochrome CCD camera. […]
compound,measurement,setting,value
CCCCCCCCc1ccc([C@H]2CCN[C@@H]2CO)cc1.Cl [compound 893],Average time spent on running wheels each day,"[1]; HFD-fed mice with running wheels, 120 mg/kg",equivalent in vehicle- and sphingolipid-like compound 893-treated groups
same,Average daily distance run,"[1]; HFD-fed mice with running wheels, 120 mg/kg Mon/Wed/Fri",2.8±1.2 km
same,"Weight loss, running wheel plus treatment","[1]; HFD-fed mice, running wheel and 120 mg/kg",even greater weight loss than observed with either treatment alone
same,Animals with reversal of HFD-induced changes in brain mitochondrial morphology,brain mitochondria,3 out of 4
